# Data as given in US10221186B2, “Spirocyclic heterocyclic compounds useful as HIV integrase inhibitors” (priority 2014, dated 2019).
# Where two headings read alike, the source gives them in different places.
# Test system: HIV-1 (NL4-3 strain)
# Test: Assay for inhibition of HIV replication (VIKING) in infected MT4-GFP cells
# Assay type: cell-based
# Settings: infected cells at 48 h / 24 h
# Protocol: MT4-GFP cells (250,000 cells/ml) were bulk-infected with HIV-1 (NL4-3 strain) at low multiplicity of infection (MOI) in RPMI+10% FBS for 24 hours. […] Test compounds were serial-diluted in DMSO on ECHO. The infected MT4-GFP cells were added to a 384-well poly-D-lysine coated black plate with clear bottom in which the diluted test compounds were placed. The cells were seeded at 8,000 cells per well and the final DMSO concentration was 0.4%. The infected cells (Green GFP cells) were quantified at both 24 and 48 hours post incubation using Acumen eX3. Viral reproductive ratio (R0) was determined using the number of infected cells at 48 hours divided by the number of infected cells at 24 hours. Percent viral growth inhibition was calculated by [1−(R−Rtripledrug)/(RDMSO−Rtripledrug)]*100.
# [1] = MT4-GFP cells infected with HIV-1 NL4-3, 0% NHS (normal human serum), read-out: VIKING IP50 (nM) with 0% NHS
# [2] = MT4-GFP cells infected with HIV-1 NL4-3, 100% NHS (normal human serum), read-out: VIKING IP50 (nM) with 100% NHS
# [3] = Human immunodeficiency virus 1, NL43, MT4-GFP cells infected with HIV-1 NL4-3, 0% NHS (normal human serum), read-out: VIKING IP50 (nM) with 0% NHS
# [4] = Human immunodeficiency virus 1, NL43, MT4-GFP cells infected with HIV-1 NL4-3, 100% NHS (normal human serum), read-out: VIKING IP50 (nM) with 100% NHS
SMILES,IC50 [1] [nM],IC50 [2] [nM],IC50 [3] [nM],IC50 [4] [nM]
"CCN1C(=O)c2c(O)c(=O)c(C(=O)NCc3ccc(F)cc3F)cn2C2(COC2)C1OC (single isomer, unassigned) [Compound 34]",5,4920,,
"CCN1C(=O)c2c(O)c(=O)c(C(=O)NCc3ccc(F)cc3F)cn2C2(CCOC2)C1OC (single isomer, unassigned) [Compound 35]",1,88,,
COCCN1CC2(CCOC2)n2cc(-c3nnc(Cc4ccc(F)cc4F)s3)c(=O)c(O)c2C1=O (stereo not shown) [Compound 39],,291,2,
"CN1CC2(CCNC2)n2cc(C(=O)NCc3ccc(F)cc3F)c(=O)c(O)c2C1=O (single isomer, unassigned) [Compound 51]",3,68,,
O=C(NCc1ccc(F)cc1F)c1cn2c(c(O)c1=O)C(=O)N(CCO)CC21CCOC1 (stereo not shown) [Compound 24],,,35,> 8000
COCCN1CC2(CCOC2)n2cc(C(=O)NCc3ccc(F)c(Cl)c3)c(=O)c(O)c2C1=O (stereo not shown) [Compound 28],2,2770,,
COCCN1CC2(CCOC2)n2cc(-c3nnc(Cc4ccc(F)cc4F)s3)c(=O)c(O)c2C1=O (stereo not shown) [Compound 40],4,691,,
COCN1CC2(CCOC2)n2cc(C(=O)NCc3ccc(F)cc3F)c(=O)c(O)c2C1=O (stereo not shown) [Compound 18],,> 8400,3,
CN1CC2(CCOCC2)n2cc(C(=O)NCc3ccc(F)cc3F)c(=O)c(O)c2C1=O [Compound 7],,,6,113
"CC(=O)N1CCC2(CN(C)C(=O)c3c(O)c(=O)c(C(=O)NCc4ccc(F)cc4F)cn32)C1 (single isomer, unassigned) [Compound 46]",19,259,,
CN1CC2(COC2)n2cc(C(=O)NCc3ccc(F)cc3F)c(=O)c(O)c2C1=O [Compound 4],,,2,334
COC1N(N(C)C)C(=O)c2c(O)c(=O)c(C(=O)NCc3ccc(F)cc3F)cn2C12COC2 (stereo not shown) [Compound 38],,,7,235
"CN1CC2(CCN(S(C)(=O)=O)C2)n2cc(C(=O)NCc3ccc(F)cc3F)c(=O)c(O)c2C1=O (single isomer, unassigned) [Compound 48]",10,112,,
CCOCCN1CC2(CCOC2)n2cc(C(=O)NCc3ccc(F)cc3F)c(=O)c(O)c2C1=O (stereo not shown) [Compound 23],1,27,,
COCCN1CC2(CCOC2)n2cc(C(=O)NCc3ccc(F)cc3F)c(=O)c(O)c2C1=O (stereo not shown) [Compound 20],,337,2,
CN1CC2(CCCOC2)n2cc(C(=O)NCc3ccc(F)cc3F)c(=O)c(O)c2C1=O (stereo not shown) [Compound 10],,75,3,
"COCCCN1CC2(CCOC2)n2cc(C(=O)NCc3ccc(F)cc3F)c(=O)c(O)c2C1=O (single isomer, unassigned) [Compound 13]",2,36,,
CCN1CC2(CCOC2)n2cc(C(=O)NCc3ccc(F)cc3F)c(=O)c(O)c2C1=O (stereo not shown) [Compound 17],2,> 8400,,
"CC(C)OC(=O)OCOP(=O)(CCN1C[C@@]2(CCOC2)n2cc(C(=O)NCc3ccc(F)cc3F)c(=O)c(O)c2C1=O)OCOC(=O)OC(C)C (single isomer, unassigned) [Compound 54]",,,5,1600
"COCCCN1CC2(CCOC2)n2cc(C(=O)NCc3ccc(F)cc3F)c(=O)c(O)c2C1=O (single isomer, unassigned) [Compound 12]",5,,,47
COCCN1CC2(CCOC2)n2cc(C(=O)NCc3cccc(Cl)c3F)c(=O)c(O)c2C1=O (stereo not shown) [Compound 30],1,417,,
"CC(=O)N1CCC2(CN(C)C(=O)c3c(O)c(=O)c(C(=O)NCc4ccc(F)cc4F)cn32)C1 (single isomer, unassigned) [Compound 45]",69,,,297
COCCN1CC2(COC2)n2cc(C(=O)NCc3ccc(F)cc3F)c(=O)c(O)c2C1=O [Compound 3],,,3,292
COCCN1CC2(CCOC2)n2cc(C(=O)NCc3ccc(F)c(Cl)c3F)c(=O)c(O)c2C1=O (stereo not shown) [Compound 25],,,1,1730
CN1CC2(CCCOC2)n2cc(C(=O)NCc3ccc(F)cc3F)c(=O)c(O)c2C1=O (stereo not shown) [Compound 11],3,442,,

SMILES,IC50 [1] [nM],IC50 [2] [nM],IC50 [3] [nM],IC50 [4] [nM]
CN(C)N1CC2(CCOCC2)n2cc(C(=O)NCc3ccc(F)cc3F)c(=O)c(O)c2C1=O [Compound 2],,,19,1510
"CCN1C(=O)c2c(O)c(=O)c(C(=O)NCc3ccc(F)cc3F)cn2C2(CCOC2)C1OC (single isomer, unassigned) [Compound 36]",3,114,,
CN1CC2(CCOC2)n2cc(C(=O)NCc3ccc(F)cc3F)c(=O)c(O)c2C1=O (stereo not shown) [Compound 15],4,108,,
"CN1CCC2(C1)CN(C)C(=O)c1c(O)c(=O)c(C(=O)NCc3ccc(F)cc3F)cn12 (single isomer, unassigned) [Compound 50]",1,74,,
"CN1CC2(CCNC2)n2cc(C(=O)NCc3ccc(F)cc3F)c(=O)c(O)c2C1=O (single isomer, unassigned) [Compound 52]",18,210,,
CCOCCN1CC2(CCOC2)n2cc(C(=O)NCc3ccc(F)cc3F)c(=O)c(O)c2C1=O (stereo not shown) [Compound 22],,,2,40
"COCCN1CC2(CCCOC2)n2cc(C(=O)NCc3ccc(F)cc3F)c(=O)c(O)c2C1=O (single isomer, unassigned) [Compound 8]",,260,2,
CCN1CC2(COC2)n2cc(C(=O)NCc3ccc(F)cc3F)c(=O)c(O)c2C1=O [Compound 5],,,4,> 8400
"COCCN1CC2(CCCOC2)n2cc(C(=O)NCc3ccc(F)cc3F)c(=O)c(O)c2C1=O (single isomer, unassigned) [Compound 9]",2,814,,
COCN1CC2(CCOC2)n2cc(C(=O)NCc3ccc(F)cc3F)c(=O)c(O)c2C1=O (stereo not shown) [Compound 19],2,3420,,
CCN1CC2(CCOC2)n2cc(C(=O)NCc3ccc(F)cc3F)c(=O)c(O)c2C1=O (stereo not shown) [Compound 16],,,2,4530
COCCN1CC2(CCOC2)n2cc(C(=O)NCc3ccc(F)c(Cl)c3F)c(=O)c(O)c2C1=O (stereo not shown) [Compound 26],1,1140,,
COCCN1CC2(CCOC2)n2cc(C(=O)NCc3ccc(F)c(Cl)c3)c(=O)c(O)c2C1=O (stereo not shown) [Compound 27],,,3,3660
O=C(NCc1ccc(F)cc1F)c1cn2c(c(O)c1=O)C(=O)N(CCP(=O)(O)O)CC21CCOC1 (stereo not shown) [Compound 32],,,293,873
"CC(C)OC(=O)OCOP(=O)(CCN1C[C@]2(CCOC2)n2cc(C(=O)NCc3ccc(F)cc3F)c(=O)c(O)c2C1=O)OCOC(=O)OC(C)C (single isomer, unassigned) [Compound 58]",,,7,530
"CCN1C(=O)c2c(O)c(=O)c(C(=O)NCc3ccc(F)cc3F)cn2C2(CCOC2)C1OC (single isomer, unassigned) [Compound 37]",3,663,,
"CN1CCC2(C1)CN(C)C(=O)c1c(O)c(=O)c(C(=O)NCc3ccc(F)cc3F)cn12 (single isomer, unassigned) [Compound 49]",,,2,90
"CN1CC2(CCN(S(C)(=O)=O)C2)n2cc(C(=O)NCc3ccc(F)cc3F)c(=O)c(O)c2C1=O (single isomer, unassigned) [Compound 47]",,,6,78
COCCN1CC2(CCOC2)n2cc(C(=O)NCc3ccc(F)cc3F)c(=O)c(O)c2C1=O (stereo not shown) [Compound 21],3,129,,
COCCN1CC2(CCOC2)n2cc(C(=O)NCc3cccc(Cl)c3F)c(=O)c(O)c2C1=O (stereo not shown) [Compound 29],,1140,1,
CCOP(=O)(CCN1CC2(CCOC2)n2cc(C(=O)NCc3ccc(F)cc3F)c(=O)c(O)c2C1=O)OCC (stereo not shown) [Compound 31],,,17,232
CN(C)N1CC2(COC2)n2cc(C(=O)NCc3ccc(F)cc3F)c(=O)c(O)c2C1=O [Compound 1],,,4,1280
CN1CC2(CCOC2)n2cc(C(=O)NCc3ccc(F)cc3F)c(=O)c(O)c2C1=O (stereo not shown) [Compound 14],,,3,209
COCCN1CC2(CCOCC2)n2cc(C(=O)NCc3ccc(F)cc3F)c(=O)c(O)c2C1=O [Compound 6],,,6,646
"CCN1C(=O)c2c(O)c(=O)c(C(=O)NCc3ccc(F)cc3F)cn2C2(COC2)C1OC (single isomer, unassigned) [Compound 33]",,210,3,
